Measured values published in US10131652B2, “Pyrimidinyloxy benzene derivatives as herbicides” (E. I. DU PONT DE NEMOURS AND COMPANY, priority 2014, dated 2018).
Read-outs that look alike come from different tables or passages of the source.

Columns and labels:
Test in all cases: Test E pre-/postemergence plant response
Format in all cases: in vivo
[1] = tested on: oilseed rape (Brassica napus); settings: scale 0 to 100, read-out: Plant response rating, Oilseed Rape; for plant injury at 16 g/ha: 16 g ai/ha; for plant injury at 31 g/ha: 31 g ai/ha; for plant injury at 62 g/ha: 62 g ai/ha; for plant injury at 125 g/ha: 125 g ai/ha
How it was run: (§1)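 Visual scores on a 0–100 scale (100 = complete control) were assigned against untreated controls 7–21 days after treatment in a controlled environment. Compounds, formulated with solvent plus surfactant, were applied to pre-emergence silt-loam sowings or to 1- to 4-leaf plants (2–18 cm) in potting medium.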

[2] = tested on: wild radish (Raphanus raphanistrum); settings: scale 0 to 100, read-out: Plant response rating, Radish, Wild; for pest or weed control at 16 g/ha: 16 g ai/ha; for pest or weed control at 31 g/ha: 31 g ai/ha; for pest or weed control at 62 g/ha: 62 g ai/ha; for pest or weed control at 125 g/ha: 125 g ai/ha
How it was run: as §1

kochia (Kochia scoparia) = settings: Bassia scoparia, scale 0 to 100, read-out: Plant response rating, Kochia; for pest or weed control at 16 g/ha: 16 g ai/ha; for pest or weed control at 31 g/ha: 31 g ai/ha; for pest or weed control at 62 g/ha: 62 g ai/ha; for pest or weed control at 125 g/ha: 125 g ai/ha
How it was run: as §1

[3] = tested on: bluegrass (annual bluegrass, Poa annua); settings: scale 0 to 100, read-out: Plant response rating, Bluegrass; for pest or weed control at 16 g/ha: 16 g ai/ha; for pest or weed control at 31 g/ha: 31 g ai/ha; for pest or weed control at 62 g/ha: 62 g ai/ha; for pest or weed control at 125 g/ha: 125 g ai/ha
How it was run: as §1

[4] = tested on: downy bromegrass (Bromus tectorum); settings: scale 0 to 100, read-out: Plant response rating, Bromegrass, Downy; for pest or weed control at 16 g/ha: 16 g ai/ha; for pest or weed control at 31 g/ha: 31 g ai/ha; for pest or weed control at 62 g/ha: 62 g ai/ha; for pest or weed control at 125 g/ha: 125 g ai/ha
How it was run: as §1

[5] = tested on: galium (catchweed bedstraw, Galium aparine); settings: scale 0 to 100, read-out: Plant response rating, Galium; for pest or weed control at 16 g/ha: 16 g ai/ha; for pest or weed control at 31 g/ha: 31 g ai/ha; for pest or weed control at 62 g/ha: 62 g ai/ha; for pest or weed control at 125 g/ha: 125 g ai/ha
How it was run: as §1

[6] = tested on: chickweed (common chickweed, Stellaria media); settings: scale 0 to 100, read-out: Plant response rating, Chickweed; for pest or weed control at 16 g/ha: 16 g ai/ha; for pest or weed control at 31 g/ha: 31 g ai/ha; for pest or weed control at 62 g/ha: 62 g ai/ha; for pest or weed control at 125 g/ha: 125 g ai/ha
How it was run: as §1

[7] = tested on: Italian ryegrass (Lolium multiflorum); settings: scale 0 to 100, read-out: Plant response rating, Ryegrass, Italian; for pest or weed control at 16 g/ha: 16 g ai/ha; for pest or weed control at 31 g/ha: 31 g ai/ha; for pest or weed control at 62 g/ha: 62 g ai/ha; for pest or weed control at 125 g/ha: 125 g ai/ha
How it was run: as §1

[8] = tested on: winter barley (Hordeum vulgare); settings: post-emergence, Postemergence, scale 0 to 100, read-out: Plant response rating, Barley, Winter
How it was run: as §1

[9] = tested on: windgrass (Apera spica-venti); settings: scale 0 to 100, read-out: Plant response rating, Windgrass; for pest or weed control at 16 g/ha: 16 g ai/ha; for pest or weed control at 62 g/ha: 62 g ai/ha; for pest or weed control at 125 g/ha: 125 g ai/ha
How it was run: as §1

[10] = tested on: wild buckwheat (Polygonum convolvulus); settings: Fallopia convolvulus, scale 0 to 100, read-out: Plant response rating, Buckwheat, Wild; for pest or weed control at 16 g/ha: 16 g ai/ha; for pest or weed control at 31 g/ha: 31 g ai/ha; for pest or weed control at 62 g/ha: 62 g ai/ha; for pest or weed control at 125 g/ha: 125 g ai/ha
How it was run: as §1

FC(F)(F)c1cc(-c2ccccc2Oc2ncc(Cl)cn2)no1 [Compound 200, 5-chloro-2-[2-[5-(trifluoromethyl)-3-isoxazolyl]phenoxy]pyrimidine]
40%: pest or weed control at 125 g/ha ([7]; post-emergence, Postemergence)
0%: pest or weed control at 16 g/ha ([7]; pre-emergence, Preemergence)
80%: pest or weed control at 31 g/ha ([2]; post-emergence, Postemergence) | pest or weed control at 16 g/ha ([2]; pre-emergence, Preemergence) | pest or weed control at 125 g/ha ([4]; pre-emergence, Preemergence)
75%: plant injury at 16 g/ha ([1]; post-emergence, Postemergence) | pest or weed control at 31 g/ha ([5]; post-emergence, Postemergence) | pest or weed control at 62 g/ha ([5]; post-emergence, Postemergence) | pest or weed control at 31 g/ha ([6]; post-emergence, Postemergence) | pest or weed control at 31 g/ha ([10]; pre-emergence, Preemergence)
85%: plant injury at 31 g/ha ([1]; post-emergence, Postemergence) | pest or weed control at 62 g/ha ([2]; post-emergence, Postemergence) | pest or weed control at 31 g/ha (kochia (Kochia scoparia); post-emergence, Postemergence) | pest or weed control at 62 g/ha (kochia (Kochia scoparia); post-emergence, Postemergence) | pest or weed control at 125 g/ha ([7]; pre-emergence, Preemergence)
10%: pest or weed control at 31 g/ha ([4]; post-emergence, Postemergence) | pest or weed control at 16 g/ha ([4]; pre-emergence, Preemergence) | pest or weed control at 31 g/ha ([7]; post-emergence, Postemergence) | plant injury at 31 g/ha ([8]; 31 g ai/ha) | pest or weed control at 16 g/ha ([9]; post-emergence, Postemergence)
15%: pest or weed control at 16 g/ha ([5]; pre-emergence, Preemergence) | pest or weed control at 16 g/ha ([9]; pre-emergence, Preemergence)
45%: pest or weed control at 62 g/ha ([4]; pre-emergence, Preemergence) | pest or weed control at 125 g/ha ([9]; post-emergence, Postemergence)
60%: plant injury at 16 g/ha ([1]; pre-emergence, Preemergence)
70%: pest or weed control at 31 g/ha ([2]; pre-emergence, Preemergence) | pest or weed control at 16 g/ha (kochia (Kochia scoparia); post-emergence, Postemergence) | pest or weed control at 16 g/ha (kochia (Kochia scoparia); pre-emergence, Preemergence) | pest or weed control at 125 g/ha ([3]; post-emergence, Postemergence) | pest or weed control at 31 g/ha ([3]; pre-emergence, Preemergence) | pest or weed control at 16 g/ha ([5]; post-emergence, Postemergence) | pest or weed control at 16 g/ha ([6]; pre-emergence, Preemergence) | pest or weed control at 31 g/ha ([10]; post-emergence, Postemergence)
90%: pest or weed control at 125 g/ha (kochia (Kochia scoparia); post-emergence, Postemergence) | pest or weed control at 125 g/ha ([5]; post-emergence, Postemergence) | pest or weed control at 31 g/ha ([6]; pre-emergence, Preemergence)
25%: pest or weed control at 62 g/ha ([4]; post-emergence, Postemergence) | pest or weed control at 31 g/ha ([5]; pre-emergence, Preemergence) | pest or weed control at 62 g/ha ([7]; post-emergence, Postemergence) | pest or weed control at 31 g/ha ([7]; pre-emergence, Preemergence) | plant injury at 125 g/ha ([8]; 125 g ai/ha)
95%: pest or weed control at 125 g/ha ([2]; post-emergence, Postemergence) | pest or weed control at 62 g/ha ([2]; pre-emergence, Preemergence) | pest or weed control at 125 g/ha ([2]; pre-emergence, Preemergence) | pest or weed control at 62 g/ha ([3]; pre-emergence, Preemergence) | pest or weed control at 62 g/ha ([10]; post-emergence, Postemergence)
20%: pest or weed control at 16 g/ha ([3]; post-emergence, Postemergence) | pest or weed control at 16 g/ha ([3]; pre-emergence, Preemergence) | plant injury at 62 g/ha ([8]; 62 g ai/ha) | pest or weed control at 31 g/ha ([9]; post-emergence, 31 g ai/ha, Postemergence)
65%: pest or weed control at 16 g/ha ([2]; post-emergence, Postemergence) | pest or weed control at 16 g/ha ([6]; post-emergence, Postemergence) | pest or weed control at 16 g/ha ([10]; post-emergence, Postemergence) | pest or weed control at 16 g/ha ([10]; pre-emergence, Preemergence)
35%: pest or weed control at 31 g/ha ([3]; post-emergence, Postemergence) | pest or weed control at 125 g/ha ([4]; post-emergence, Postemergence) | pest or weed control at 31 g/ha ([4]; pre-emergence, Preemergence) | pest or weed control at 62 g/ha ([9]; post-emergence, Postemergence)
100%: plant injury at 62 g/ha ([1]; post-emergence, Postemergence) | plant injury at 125 g/ha ([1]; post-emergence, Postemergence) | plant injury at 31 g/ha ([1]; pre-emergence, Preemergence) | plant injury at 62 g/ha ([1]; pre-emergence, Preemergence) | plant injury at 125 g/ha ([1]; pre-emergence, Preemergence) | pest or weed control at 31 g/ha (kochia (Kochia scoparia); pre-emergence, Preemergence) | pest or weed control at 62 g/ha (kochia (Kochia scoparia); pre-emergence, Preemergence) | pest or weed control at 125 g/ha (kochia (Kochia scoparia); pre-emergence, Preemergence) | pest or weed control at 125 g/ha ([3]; pre-emergence, Preemergence) | pest or weed control at 125 g/ha ([5]; pre-emergence, Preemergence) | pest or weed control at 62 g/ha ([6]; post-emergence, Postemergence) | pest or weed control at 125 g/ha ([6]; post-emergence, Postemergence) | pest or weed control at 62 g/ha ([6]; pre-emergence, Preemergence) | pest or weed control at 125 g/ha ([6]; pre-emergence, Preemergence) | pest or weed control at 62 g/ha ([9]; pre-emergence, Preemergence) | pest or weed control at 125 g/ha ([9]; pre-emergence, Preemergence) | pest or weed control at 125 g/ha ([10]; post-emergence, Postemergence) | pest or weed control at 62 g/ha ([10]; pre-emergence, Preemergence) | pest or weed control at 125 g/ha ([10]; pre-emergence, Preemergence)
55%: pest or weed control at 62 g/ha ([3]; post-emergence, Postemergence) | pest or weed control at 62 g/ha ([5]; pre-emergence, Preemergence)
30%: pest or weed control at 62 g/ha ([7]; pre-emergence, Preemergence)
5%: pest or weed control at 16 g/ha ([4]; post-emergence, Postemergence) | pest or weed control at 16 g/ha ([7]; post-emergence, Postemergence) | plant injury at 16 g/ha ([8]; 16 g ai/ha)
